Test results: patent publication US20230301972A1, “ANTI-FIBROTIC COMPOSITION AND RELATED METHODS” (Fred Hutchinson Cancer Center, priority 2020, published 2023)

Key:
[1] = test system: CCl4-induced fibrosis; assay: Carbon tetrachloride (CCl4)-induced liver fibrosis mouse model; type: in vivo
Experimental: FIGS. 11A and 11B. Male C57BL/6J mice between 6-8 week old were used in the study. Mice were treated with intraperitoneal injection of 0.5 μl carbon tetrachloride (CCl4) per gram body weight, dissolved in corn oil at a ratio of 1:3, twice a week (Tuesdays and Saturdays) for 5.5 weeks or corn oil control only. […] At the end of the study, livers were either snap frozen or fixed in 10% formalin and stained for H&E, Masson Trichrome (FIG. 11A) and Ki67 (FIG. 11B).
Total RNA was extracted from the snap frozen liver tissue in TRIzol™ Reagent by Omni Bead Ruptor homogenizer. 1 μg of total RNA was reverse transcribed into first-strand cDNA using an RT2 First Strand Kit (QIAGEN). The resultant cDNA was subjected to qPCR using indicated mouse primers to measure the changes in mRNA expression of indicated mouse genes (FIG. 11A and FIG. 11C).
FIG. 12A: Total protein was extracted from the snap frozen liver tissue in T-PER™ Tissue Protein Extraction Reagent by Omni Bead Ruptor homogenizer. Changes in the phosphorylation levels of indicated proteins were detected in the liver homogenates from the CCl4 in vivo studies by reverse-phase protein array.
FIG. 12B: pSTAT3 levels were detected in the fixed […] tissue by immunohistochemistry. Intensity of staining was quantified by HALO imaging software.

[2] = test system: LX2 cells; assay: Live cell wound healing assay in LX2 cells; type: cell-based, human; conditions: 1 μM; TGFb 6.5 ng/ml; wound closure density at 50 hour
Experimental: (§1) LX2 cells were obtained from Sigma Aldrich (Cat #SCC064). LX2 cells were grown at 37° C. under 5% CO2, 95% ambient atmosphere and maintained in Dulbecco's […] (DMEM) supplemented with 10% FBS (Sigma) and 1% Penn Strep.
(§2) FIG. 10A: LX2 cells were plated on 96-well plates (Essen Image Lock, Essen Instruments). […] Wound closure was monitored with Incucyte Live-Cell Imaging System and software (Essen Instruments) every 2-4 hours for 72 hours. The mean relative wound density of at least three biological replicates was calculated. The wound density correlates with the cell motility. Plotted is the wound closure density at 50 hour.

[3] = test system: LL47 cells; assay: Real-time wound healing assay (Incucyte) in lung fibroblasts; type: cell-based; conditions: dose-dependent; human lung fibroblasts
Experimental: as §2, with “5A: LL47” for “10A: LX2”, “motility.” for “motility. Plotted is the wound closure density at 50 hour.”

[4] = test system: Human lung fibroblasts (LL47); assay: qPCR of TGF-β-induced gene expression in human lung fibroblasts LL47; type: cell-based; conditions: OSI-632 1 mM as printed; LL47, 24 hours
Experimental: (§3) IPF-LL29, IPF-LL97A, and human lung fibroblast LL47 cell lines were purchased from ATCC. Mouse lung fibroblasts were isolated from the lungs of male C57BL/6J mice. Cells were grown at 37° C. under 5% CO2, 95% ambient atmosphere and maintained in Dulbecco's […] (DMEM) supplemented with 10% FBS (Sigma) and 1% Penn Strep.
(§4) FIGS. 3A and 3B. Human lung fibroblast LL47 and mouse primary lung fibroblasts isolated from mouse lungs were incubated with TGF-β alone at 5 ng/ml or TGF-β with indicated drugs for 24 hours. Same method as outlined in FIGS. 2A and 2B was used to measure the mRNA expression of indicated human or mouse genes.

[5] = test system: IPF lung fibroblasts; assay: Collagen contraction assay in lung fibroblasts; type: cell-based, human
Experimental: FIG. 5B: LL-47 cells were cultured in a collagen gel solution in 24-well plate. […] After 24 hours, cell contraction was initiated by releasing the collagen gels from the sides of the culture dishes. The collagen gel size change (contraction index) was measured at various times and quantified with Image Lab.
FIG. 5C: same method as outlined in FIG. 5B. IPF-LL29 and IPF-LL97A cells were cultured in a collagen gel solution. 24 hours later, TGF-β alone or together with indicated drugs was added for 24 hours before cell contraction was initiated. Images shown here were taken 120 hours after the initiation of cell contraction.

[6] = test system: FGFR; assay: Kinome-profiling, FGFR; type: biochemical; conditions: at 500 nM
[7] = test system: LX2 cells; assay: qPCR of TGF-β-induced gene expression in LX2 cells; type: cell-based, human
Experimental: as §1
FIGS. 10B and 10C: LX2 cells were incubated with TGF-β alone at 6.5 ng/ml or TGF-β with indicated drugs for 48 hours. Total cellular RNA was isolated using a RNeasy Mini Kit (QIAGEN). 1 μg of total RNA was reverse transcribed into first-strand cDNA using an RT2 First Strand Kit (QIAGEN). The resultant cDNA was subjected to qPCR using indicated human primers to measure the changes in mRNA expression of indicated human genes.

[8] = test system: mouse lung fibroblasts; assay: qPCR of TGF-β-induced gene expression in mouse primary lung fibroblasts; type: cell-based; conditions: TGF-β 5 ng/ml, 24 hours
Experimental: as §3, §4

[9] = test system: SMAD2 phosphorylation; assay: Immunoblot of TGF-β-mediated SMAD2 phosphorylation in LX2 cells; type: cell-based, human

NC(=O)c1c(OCc2c(F)cc(Br)cc2F)nsc1NC(=O)NCCCCN1CCCC1 [OSI-632, 3-(4-bromo-2,6-difluoro-benzyloxy)-5-[3-(4-pyrrolidin-1-yl-butyl)-ureido]-isothiazole-4-carboxylic acid amide]
carbon tetrachloride (CCl4)-induced fibrosis ([1]; 80 mg/Kg thrice/week oral gavage, 3 weeks, mice, preliminary data): significant decrease | hepatocyte regeneration measured by Ki67 staining ([1]; livers treated with OSI-632): increased hepatocyte regeneration | CCl4-induced expression of HSC activation marker Acta2 and proliferation stimuli such as Tgfb2 ([1]; mouse liver, qPCR): reverse | reversal of CCl4-induced expression of Loxl1 ([1]; mouse liver, qPCR): 2 fold | reversal of CCl4-induced expression of Timp1 ([1]; mouse liver, qPCR): 5 fold | reversal of CCl4-induced expression of Timp2 ([1]; mouse liver, qPCR): 2 fold | reversal of CCl4-induced expression of Timp3 ([1]; mouse liver, qPCR): ~2 fold | mRNA expression of Col1a1 (qPCR) and protein level of collagen 1 (RPPA), liver ([1]; vs CCl4-only treated controls): significantly decreased | collagen deposition (Masson trichome staining), liver ([1]; vs CCl4 only treated mice): significant reduction | TGF-β-induced motility of LX2 cells [2]: significantly decreased | motility (cell migration), real-time wound healing assay [3]: potently decreased motility | TGFb-induced expression of COL1A1, ACTA2, and FN1 and of indicated proliferation stimuli [4]: inhibited | contractility in collagen contraction assay ([5]; 0.5 or 1 mM OSI-632 as printed, TGF-β-stimulated): significantly decreased contractility | inhibition of motility and contraction compared with nintedanib or pirfenidone ([5]; collagen contraction assay, IPF-LL29 and IPF-LL97A cells, 120 hours): significantly outperforms inhibition by nintedanib or pirfenidone | inhibition of FGFR [6]: 90% | expression of integrins (ITGAV and ITGB6) and HSC proliferation stimuli TGFB2, PDGFA, PDGFB, CTGF, VEGFA, and CCL5 [7]: significant decrease | inhibition of expression of COL1A1 (FIG. 10C) [7]: 2 fold | inhibition of expression of COL1A2 (FIG. 10C) [7]: 3 fold | inhibition of expression of COL5A1 (FIG. 10C) [7]: 5 fold | decrease in TGF-β-induced expression of COL1A1 (FIG. 10B) ([7]; 48 hours): 2 fold | decrease in TGF-β-induced expression of αSMA (FIG. 10B) ([7]; 48 hours): 2 fold | expression of indicated fibroblast activation and proliferation factors [8]: inhibited expression | activation of TGF-β-mediated SMAD2 phosphorylation (immunoblot) [9]: blocks activation
